Results on eight molecules are retold here after ChEMBL document CHEMBL3272153, “Synthetic inhibitors of Escherichia coli, calf thymus, and Ehrlich ascites tumor thymidylate synthetase” (J Med Chem, 1976).

Broadly, the Ki is a dissociation constant, usually derived from enzyme kinetics or from competition with a known ligand. Low readings indicate tighter binding, high ones weaker binding.

SMILES strings stand for the structures.

Series [1] in a line: Competitive inhibition of Escherichia coli thymidylate synthetase using 5-[3H]-dUMP as substrate after 7 mins by scintillation counting analysis.
Series [2] in a line: Competitive inhibition of calf thymus thymidylate synthetase using 5-[3H]-dUMP as substrate after 10 mins by scintillation counting analysis. Further details: species or system Bos taurus.
A short description of series [3]: Competitive inhibition of thymidylate synthetase in mouse Ehrlich ascites tumor cells using 5-[3H]-dUMP as substrate after 7 mins by scintillation counting analysis.
The species entered for series [4] is Bos taurus. Nature of the series: Irreversible inactivation of calf thymus thymidylate synthetase assessed as enzyme activity using dUMP as substrate at 0.33 mM preincubated for 3 hrs in absence of cofactor tetrahydrofolate.
The species entered for series [5] is Bos taurus. Nature of the series: Irreversible inactivation of calf thymus thymidylate synthetase assessed as enzyme activity using dUMP as substrate at 0.33 mM preincubated for 3 hrs in presence of cofactor tetrahydrofolate.
The species entered for series [6] is Mus musculus. Nature of the series: Irreversible inactivation of thymidylate synthetase in mouse Ehrlich ascites tumor cells assessed as enzyme activity using dUMP as substrate at 0.33 mM preincubated for 3 hrs in absence of cofactor tetrahydrofolate.
Series [7] is filed under the species Mus musculus. Nature of the series: Irreversible inactivation of thymidylate synthetase in mouse Ehrlich ascites tumor cells assessed as enzyme activity using dUMP as substrate at 0.33 mM preincubated for 3 hrs in presence of cofactor tetrahydrofolate.
Series [8] is filed under the species Bos taurus. Nature of the series: Ratio of Ki to Km for calf thymus thymidylate synthetase.
For series [9], the species on record is Mus musculus. Nature of the series: Ratio of Ki to Km for thymidylate synthetase in mouse Ehrlich ascites tumor cells.
A short description of series [10]: Selectivity ratio of Ki/Km for calf thymus thymidylate synthetase to Ki/Km for thymidylate synthetase in mouse Ehrlich ascites tumor cells.
A short description of series [11]: Inhibition of Escherichia coli thymidylate synthetase using 5-[3H]-dUMP as substrate.
Series [12] is described as follows: Non-competitive inhibition of calf thymus thymidylate synthetase using 5-[3H]-dUMP as substrate after 10 mins by scintillation counting analysis. The arrangement: species or system Bos taurus.
Series [13] is described as follows: Retardation factor of the compound. In kind it is physicochemical.

In the case of `[N-]=[N+]=NCc1cn([C@H]2C[C@H](O)[C@@H](COP(=O)(O)O)O2)c(=O)[nH]c1=O`, the Ki in [1] was 18 µM; in [2] it was 21 µM; in series [3] it was 5 µM. The Activity amounted to 77% in the series filed under Bos taurus [4], 83% in the series filed under Bos taurus [5], 60% in the series listed under Mus musculus [6] and 87% in the series filed under Mus musculus [7]. Further, the results for the Ki/Km in the series listed under Bos taurus [8] and in the series listed under Mus musculus [9] were 2.3 and 1.2, respectively. Also, in [10], the Selectivity ratio turned out to be 1.9.
For the molecule `O=c1[nH]c(=O)n([C@H]2C[C@H](O)[C@@H](COP(=O)(O)O)O2)cc1CO`, the Ki in [1] was determined as 4 µM; in series [2] it was 4 µM; in [3] it was 0.6 µM; in [11] it was 10.5 µM. Further, the Ki/Km in the series listed under Bos taurus [8] is 0.44; in the series filed under Mus musculus [9], 0.15. Besides, the Selectivity ratio in series [10] came to 3.
On to `COCc1cn([C@H]2C[C@H](O)[C@@H](COP(=O)(O)O)O2)c(=O)[nH]c1=O`, for which the results for the Ki in series [1], in series [2] and in [3] were 42 µM, 32 µM and 19 µM, respectively. The values for the Ki/Km in the series listed under Bos taurus [8] and in the series listed under Mus musculus [9] were 3.5 and 4.7, respectively. The Selectivity ratio in series [10] came to 0.7.
In the case of `O=Cc1cn([C@H]2C[C@H](O)[C@@H](COP(=O)(O)O)O2)c(=O)[nH]c1=O`, the Ki came out at 0.1 µM in series [1], 0.08 µM in [3], 0.09 µM in series [12] and 0.013 µM in series [11]. The Ki/Km amounted to 0.01 in the series filed under Bos taurus [8] and 0.02 in the series listed under Mus musculus [9]. Besides, the Selectivity ratio in series [10] amounted to 0.5.
`O=c1[nH]c(=O)n([C@H]2C[C@H](O)[C@@H](COP(=O)(O)O)O2)cc1COCc1ccccc1`: the Ki stood at 25 µM in series [1], 42 µM in [2] and 9 µM in [3]. The Ki/Km in the series listed under Bos taurus [8] is 4.6; in the series listed under Mus musculus [9] it was 2.2. The Selectivity ratio in series [10] turned out to be 2.
For `C=CCc1cn([C@H]2C[C@H](O)[C@@H](COP(=O)(O)O)O2)c(=O)[nH]c1=O`, the inhibition constant Ki in series [1] was determined as 135 µM; in series [2], 130 µM; in series [3] it was 40 µM. In addition, the Ki/Km was found to be 14 in the series listed under Bos taurus [8] and 10 in the series filed under Mus musculus [9]. In addition, the Selectivity ratio in series [10] was 1.4. The Rf in [13] amounted to 0.55.
Consider `CC(=O)c1cn([C@H]2C[C@H](O)[C@@H](COP(=O)(O)O)O2)c(=O)[nH]c1=O`, for which the Ki came to 64 µM in series [1], 73 µM in [2] and 22 µM in series [3]. In addition, the Ki/Km was found to be 8.1 in the series filed under Bos taurus [8] and 5.5 in the series listed under Mus musculus [9]. Also, the Selectivity ratio in series [10] is 1.5.
With `O=c1[nH]c(=O)n([C@H]2C[C@H](O)[C@@H](COP(=O)(O)O)O2)cc1CC1CO1` (stereo not given in full), the values for the inhibitory constant (Ki) in series [1], in [2] and in series [3] were 25 µM, 33 µM and 14 µM, respectively. Besides, the Activity in the series filed under Bos taurus [4] was 104%; in the series listed under Bos taurus [5] it was 85%; in the series listed under Mus musculus [6], 94%; in the series filed under Mus musculus [7], 120%. The Ki/Km came out at 3.6 in the series listed under Bos taurus [8] and 3.5 in the series listed under Mus musculus [9]. Also, the Selectivity ratio in series [10] was determined as 1. In series [13], this molecule gave a Rf of 0.45.
